Here are results for two substances from patent US9173951B2, “Carbohydrate-based drug delivery polymers and conjugates thereof” (NEKTAR THERAPEUTICS, priority 2008, dated 2015).

The test system of the assay is db/db diabetic mice. As to the kind of experiment: Blood glucose levels in db/db diabetic mice after i.p. injection. It is filed as in vivo. The method, then:
Blood glucose levels were measured At different time points after dosing.
Study Procedure: Animals were acclimated to researcher's handling procedures. Baseline glucose levels were measured prior to drug administration. Outlier animals with glucose level <300 or >600 mg/dL were excluded from the study. Animals were assigned randomly to different groups, as follows:
At different time points (1, 2, 4, 8, and 24 hrs), blood was collected by tail clipping, and glucose level was measured using a One Touch® Ultra glucometer (Johnson & Johnson; Life Scan Ltd.)

As to dextran-butyrALD-40K-insulin [20b], the “Glucose level, mean” value is listed as 263+39 mg/dL (250 ug/mouse ip, 1 hr); 263 mg/dL (250 ug/mouse ip, 1 hr, listed as Dex-Ins); 192+36 mg/dL (250 ug/mouse ip, 2 hr); 192 mg/dL (250 ug/mouse ip, 2 hr, listed as Dex-Ins); 462 mg/dL (250 ug/mouse ip, 4 hr); 494 mg/dL (250 ug/mouse ip, 8 hr). For the same substance, the “Glucose level, mean” value runs as follows: (250 ug/mouse ip, 24 hr) 517 mg/dL; (250 ug/mouse ip, time 0 (baseline)) 495+32 mg/dL; (250 ug/mouse ip, time 0 (baseline), listed as Dex-Ins) 495 mg/dL. The “reduction of glucose level vs time 0” value was 47% (250 ug/mouse ip, 1 hr) and 61% (250 ug/mouse ip, 2 hr).

For insulin, the “Glucose level, mean” value was 265 mg/dL (5 ug/mouse ip, 1 hr); 352 mg/dL (5 ug/mouse ip, 2 hr); 587 mg/dL (5 ug/mouse ip, 4 hr); 538 mg/dL (5 ug/mouse ip, 8 hr); 538 mg/dL (5 ug/mouse ip, 24 hr); 510 mg/dL (5 ug/mouse ip, time 0 (baseline)). Also, the “Glucose level, mean” value is, setting by setting: (50 ug/mouse ip, 1 hr) 210 mg/dL; (50 ug/mouse ip, 2 hr) 150 mg/dL; (50 ug/mouse ip, 4 hr) 550 mg/dL; (50 ug/mouse ip, 8 hr) 558 mg/dL; (50 ug/mouse ip, 24 hr) 541 mg/dL; (50 ug/mouse ip, time 0 (baseline)) 445 mg/dL. Also, the “reduction of glucose level vs time 0” value turned out to be 48% (5 ug/mouse ip, 1 hr); 31% (5 ug/mouse ip, 2 hr); 53% (50 ug/mouse ip, 1 hr); 67% (50 ug/mouse ip, 2 hr).
